Measured values as given in patent US20020164755A1, “Stable esterase, a process for the extraction thereof, and use thereof for cleaving acyclic monoterpenyl esters into their monoterpenols” (Council of Scientific and Industrial Research, priority 2000, published 2002).
Structures can show the parent of a compound that is named as a salt.

Assays:
[1] = system: esterase enzyme from palmarosa inflorescence (60-80% ammonium sulphate precipitated fraction); assay: Hydrolysis of mixture of acyclic monoterpenyl esters by 60-80% ammonium sulphate precipitated protein fraction; format: biochemical, Cymbopogon martinii; conditions: 60-80% fraction, 1 mg protein; ester rich fraction from citronella java (geranyl acetate:geranyl formate:citronellyl acetate 60:18:21) as substrate
Procedure: (§1) The geranyl acetate cleaving esterase activity was determined by GLC monitoring of geraniol produced by the hydrolysis of geranyl acetate. The assay system consisted of 0.05M Tris-HCl buffer (pH 8.5), 5 mM MgCl2. 6H2O, 1 mM DTE, 2 mM geranyl acetate and enzyme extract (approximately 1 mg protein), in a total volume of 0.5 ml. The reaction mixture was incubated at 30° C. in a sealed capped tube for 3-4 hours. The geraniol produced and leftover geranyl acetate was then extracted with ether and subjected to GLC. The appearance of geraniol peak indicated the presence of geranyl acetate cleaving esterase activity (FIG. 1). A blank with the boiled enzyme was also run simultaneously.
(§2) The gas liquid chromatographic (GLC) analysis, for the determination of geraniol produced and leftover geranyl acetate, was performed using a Perkin Elmer (model 3920 B) apparatus equipped with FID (flame ionization detector) stainless steel column (2 m×3 mm i.d.) packed with 10% FFAP (free fatty acid phase) on chromosorb WAW (80-100 mesh). The operating conditions were: Column temperature isothermal at 165° C., injector and detector temperature 200° C. and 250° C. respectively. Nitrogen and hydrogen flow rate were a adjusted to 30 ml/min and 28 ml/min, respectively. The geraniol and geranyl acetate peaks were identified by coinjecting authentic standards and quantified using a Varian integrator (model 4400).
Monoterpenyl ester rich fraction from citronella java containing geranyl acetate, geranyl formate and citronellyl acetate in proportion (60:18:21) was used as substrate. […] Furthermore, crude esterase enzyme was also able to cleave these acyclic monoterpenyl esters but to a lesser extent.

[2] = system: esterase enzyme from palmarosa inflorescence; assay: Hydrolysis of geranyl acetate and other acyclic monoterpenyl esters by crude enzymic preparation from palmarosa inflorescence, GLC monitoring; format: biochemical, Cymbopogon martinii; conditions: for Hydrolysis by crude enzymic preparation (in words): crude enzymic preparation from palmarosa inflorescence; for % Geranyl acetate hydrolyzed: 10 μmol geranyl acetate, 1 mg protein, 30° C.
Procedure: The extraction medium for the esterase enzyme consisted of 0.1 M NaPi buffer (pH 6.5) containing 50 mM sodium metabisulphite, 10 mM β-mercaptoethanol, 10 mM ascrobic acid, 0.25 M sucrose and 1 mM EDTA-Na2. Tissue (palmarosa inflorescence) was homogenized in cold extraction medium (1 g tissue/3 ml) in the presence of 50% (w/w) insoluble PVPP (polyvinyl polypyrrolidone), which prevent enzymic browning of the homogenate. The slurry was squeezed through four layers of muslin cloth and centrifuged at 15,000×g for 60 min. Purified amberlite XAD-4 resin (50% of the tissue weight) was added to the supernatant and kept for 5 minutes at 4° C., to remove the endogenous terpenes of the tissue, which can produce a significant artefact in the determination of esterase enzyme activity. The slurry thus formed was filtered through muslin cloth and the clear supernatant obtained was used to determine the acyclic monoterpenyl esters cleaving esterase activity using geranyl acetate as a model substrate. This supernatant fraction was also used for ammonium sulphate fractionation of the esterase enzyme.
Preliminary enzyme assays were done to optimize the assay conditions, and linearity of the reaction rate with time as well as enzyme concentration. The terpenoid substrates were solubilized by its dispersion in the solution of Tween-20 (10 μg/μmol of the substrate). A gas liquid chromatographic (GLC) procedure has been developed to detect the acyclic monoterpenyl esters cleaving esterase activity. […] Saturating levels (10 μmol) of the substrate geranyl acetate and 0.5 to 1.0 mg of the enzyme protein were used in each assay.
as §1, §2
Time course experiment was performed to study the linearity of the hydrolysis of geranyl acetate during the incubation period using enzymic preparation from palmarosa inflorescence. A linear catalytic rate was found up to six hours of incubation at 30° C. Almost 75% of the geranyl acetate was hydrolyzed after 24 hours of incubation (Table 1, FIG. 2).

CC(=O)OCCC(C)CCC=C(C)C (centres unmarked) [Citronellyl acetate, citronellyl acetate]
% esters hydrolyzed per 3 hours [1]: 6.78%
Hydrolysis by crude enzymic preparation (in words) [2]: could also hydrolyze

CC(C)=CCC/C(C)=C/COC=O [Geranyl formate, geranyl formate]
% esters hydrolyzed per 3 hours [1]: 4.86%
Hydrolysis by crude enzymic preparation (in words) [2]: could also hydrolyze

CC(=O)OC/C=C(\C)CCC=C(C)C [geranyl acetate]
% esters hydrolyzed per 3 hours [1]: 19.23%
% Geranyl acetate hydrolyzed ([2]; incubation time 2 hour): 8.2%
% Geranyl acetate hydrolyzed ([2]; incubation time 4 hour): 22.3%
% Geranyl acetate hydrolyzed ([2]; incubation time 6 hour): 32%
% Geranyl acetate hydrolyzed ([2]; incubation time 8 hour): 35.7%
% Geranyl acetate hydrolyzed ([2]; incubation time 10 hour): 47.1%
% Geranyl acetate hydrolyzed ([2]; incubation time 12 hour): 53.2%
